Measurements taken from patent US7476756B2, “Alkyl-, alkenyl- and alkynylcarbamate derivatives, their preparation and their application in therapeutics” (Sanofi-Aventis, priority 2005, dated 2009).

System: not given
Assay: not given
Conditions: not given

Compared with `CCC/C=C/CNC(=O)OCC(=O)NC` [Compound 2, 2-(Methylamino)-2-oxoethyl ((2E)-hex-2-en-1-yl)carbamate], `CCC/C=C\CNC(=O)OCC(=O)NC` [Compound 9, 2-(Methylamino)-2-oxoethyl ((2Z)-hex-2-en-1-yl)carbamate] is lower in melting point: 85 to 87 °C for the first, 74 to 76 °C for the second.

Compared with `CC/C=C\CCCCCCCCCCNC(=O)OCC(N)=O` [Compound 31, 2-amino-2-oxoethyl ((11Z)-tetradec-11-en-1-yl)carbamate], `CC/C=C\CCCCCCCCCCNC(=O)OCC(=O)NC` [Compound 32, 2-(Methylamino)-2-oxoethyl ((11Z)-tetradec-11-en-1-yl)carbamate] is lower in melting point: 120 to 123 °C for the first, 79 to 81 °C for the second.

First: CCCCC/C=C/CNC(=O)OCC(=O)NC [Compound 14, 2-(Methylamino)-2-oxoethyl ((2E)-oct-2-en-1-yl)carbamate]
Second: CCCCC/C=C/CNC(=O)OCC(N)=O [Compound 15, 2-Amino-2-oxoethyl ((2E)-oct-2-en-1-yl)carbamate]
The melting point of the first is lower: 80 to 82 °C for the first, 126 to 128 °C for the second.

Compared with `CCCCCCCC/C=C/CCCCCCCCCCNC(=O)OCC(=O)NC` [Compound 47, 2-(Methylamino)-2-oxoethyl ((11E)-icosa-11-en-1-yl)carbamate], `CCCCCCCCCCC/C=C\CCCCCNC(=O)OCC(=O)NC` [Compound 40, 2-(Methylamino)-2-oxoethyl ((6Z)-octadec-6-en-1-yl)carbamate] is lower in melting point: 77 to 79 °C for the first, 72 to 74 °C for the second.

First: CCC/C=C/CNC(=O)OCC(N)=O [Compound 3, 2-Amino-2-oxoethyl ((2E)-hex-2-en-1-yl)carbamate]
Second: CCC/C=C\CNC(=O)OCC(N)=O [Compound 4, 2-Amino-2-oxoethyl ((2Z)-hex-2-en-1-yl)carbamate]
The melting point of the first is higher: 126 to 128 °C for the first, 102 to 104 °C for the second.

First: CCCCCCCCCCC/C=C\CCCCCNC(=O)OCC(N)=O [Compound 39, 2-Amino-2-oxoethyl ((6Z)-octadec-6-en-1-yl)carbamate]
Second: CCCCCC/C=C\CCCCCCCCNC(=O)OCC(N)=O [Compound 34, 2-Amino-2-oxoethyl ((9Z)-hexadec-9-en-1-yl)carbamate]
The melting point of the first is lower: 100 to 102 °C for the first, 127 to 129 °C for the second.

First: CCCCCCCCCCCCCCCCCCCNC(=O)OCC(=O)NC [Compound 41, 2-(Methylamino)-2-oxoethyl ((methyl)octadec-1-yl)carbamate]
Second: CCCCCCCCCCCCCCCNC(=O)OCC(=O)NC [Compound 37, 2-(Methylamino)-2-oxoethyl (pentadec-1-yl)carbamate]
The melting point of the first is lower: 85 to 87 °C for the first, 107 to 109 °C for the second.

First: CNC(=O)COC(=O)NC1CCCCCCCCCCC1 [Compound 29, 2-(Methylamino)-2-oxoethyl (cyclododec-1-yl)carbamate]
Second: CNC(=O)COC(=O)NC1CCCCCCC1 [Compound 22, 2-(Methylamino)-2-oxoethyl (cyclooct-1-yl)carbamate]
The melting point of the first is higher: 171 to 173 °C for the first, 81 to 83 °C for the second.

`CC/C=C/C/C=C/C/C=C/CCCCCCCCCCNC(=O)OCC(=O)NC` [Compound 45, 2-(Methylamino)-2-oxoethyl ((11E,14E,17E)-icosa-11,14,17-trien-1-yl)carbamate] and `CCCCC/C=C/C/C=C/CCCCCCCCCCNC(=O)OCC(=O)NC` [Compound 46, 2-(Methylamino)-2-oxoethyl ((11E,14E)-icosa-11,14-dien-1-yl)carbamate] cannot be ordered by melting point: 57 to 59 °C for the first, 58 to 60 °C for the second.

First: CC/C=C\CCCCNC(=O)OCC(N)=O [Compound 18, 2-Amino-2-oxoethyl ((5Z)-oct-5-en-1-yl)carbamate]
Second: CC/C=C/CCNC(=O)OCC(N)=O [Compound 6, 2-Amino-2-oxoethyl ((3E)-hex-3-en-1-yl)carbamate]
The melting point of the first is lower: 122 to 124 °C for the first, 138 to 140 °C for the second.

First: CCCCCCCCCNC(=O)OCC(=O)NC [Compound 25, 2-(Methylamino)-2-oxoethyl (non-1-yl)carbamate]
Second: CCCCCCCCCCNC(=O)OCC(=O)NC [Compound 26, 2-(Methylamino)-2-oxoethyl decylcarbamate]
The melting point of the first is lower: 95 to 97 °C for the first, 98 to 100 °C for the second.

Compared with `CCCCCCCCCCCCNC(=O)OCC(=O)NC` [Compound 30, 2-(Methylamino)-2-oxoethyl (dodec-1-yl)carbamate], `CCCCCCCCCCCCCCNC(=O)OCC(=O)NC` [Compound 33, 2-(Methylamino)-2-oxoethyl (tetradec-1-yl)carbamate] is higher in melting point: 103 to 105 °C for the first, 106 to 108 °C for the second.

Compared with `CCCCCCCCCCCCCCCCCCCNC(=O)OCC(=O)NC` [Compound 43, 2-(Methylamino)-2-oxoethyl (nonadec-1-yl)carbamate], `CCCCCC/C=C\CCCCCCCCNC(=O)OCC(=O)NC` [Compound 35, 2-(Methylamino)-2-oxoethyl ((9Z)-hexadec-9-en-1-yl)carbamate] is lower in melting point: 113 to 115 °C for the first, 69 to 71 °C for the second.

First: CCCCCCCCCCNC(=O)OC(C)C(N)=O (stereo not drawn) [Compound 27, 2-Amino-1-methyl-2-oxoethyl (dec-1-yl)carbamate]
Second: CCCCCCCCNC(=O)OC(C)C(N)=O (stereo not drawn) [Compound 23, 2-Amino-1-methyl-2-oxoethyl (oct-1-yl)carbamate]
The melting point of the first is higher: 133 to 135 °C for the first, 130 to 132 °C for the second.

First: CCCC/C=C\CCNC(=O)OCC(N)=O [Compound 17, 2-Amino-2-oxoethyl ((3Z)-oct-3-en-1-yl)carbamate]
Second: CCCC/C=C\CCNC(=O)OCC(=O)NC [Compound 16, 2-(Methylamino)-2-oxoethyl ((3Z)-oct-3-en-1-yl)carbamate]
The melting point of the first is higher: 113 to 115 °C for the first, 62 to 64 °C for the second.

Compared with `CC/C=C/CCNC(=O)OCC(=O)NC` [Compound 8, 2-(Methylamino)-2-oxoethyl ((3E)-hex-3-en-1-yl)carbamate], `CC/C=C\CCNC(=O)OCC(=O)NC` [Compound 7, 2-(Methylamino)-2-oxoethyl ((3Z)-hex-3-en-1-yl)carbamate] is lower in melting point: 88 to 90 °C for the first, 72 to 74 °C for the second.

First: CCCCCNC(=O)OC(C)C(N)=O (stereo not drawn) [Compound 1, 2-Amino-1-methyl-2-oxoethyl (pent-1-yl)carbamate]
Second: CCCCCCNC(=O)OC(C)C(N)=O (stereo not drawn) [Compound 11, 2-Amino-1-methyl-2-oxoethyl (hex-1-yl)carbamate]
The melting point of the first is higher: 132 to 134 °C for the first, 123 to 125 °C for the second.

First: CCCCCCCCCCCCC(C)NC(=O)OCC(=O)NC (stereo not drawn) [Compound 36, 2-(Methylamino)-2-oxoethyl (1-methyltridecyl)carbamate]
Second: CCCCCCCCCC(C)NC(=O)OCC(=O)NC (stereo not drawn) [Compound 28, 2-(Methylamino)-2-oxoethyl (1-methyldec-1-yl)carbamate]
The melting point of the first is higher: 82 to 84 °C for the first, 71 to 73 °C for the second.

`CCCCCCCNC(=O)OCC(=O)NC` [Compound 13, 2-(Methylamino)-2-oxoethyl (hept-1-yl)carbamate] and `CCCCCCNC(=O)OCC(=O)NC` [Compound 10, 2-(Methylamino)-2-oxoethyl (hex-1-yl)carbamate] cannot be ordered by melting point: 87 to 89 °C for the first, 86 to 88 °C for the second.

First: CC/C=C\CCCCNC(=O)OCC(=O)NC [Compound 19, 2-(Methylamino)-2-oxoethyl ((5Z)-oct-5-en-1-yl)carbamate]
Second: C=CCCCCCCNC(=O)OCC(=O)NC [Compound 21, 2-(Methylamino)-2-oxoethyl (oct-7-en-1-yl)carbamate]
The melting point of the first is lower: 69 to 71 °C for the first, 72 to 74 °C for the second.

For `C=CCCCCCCNC(=O)OCC(N)=O` [Compound 20, 2-Amino-2-oxoethyl (oct-7-en-1-yl)carbamate], the melting point was 122 to 124 °C.

Molecular target: T1, enzyme FAAH (Fatty Acid Amido Hydrolase) (Mus musculus, UniProt O08914)
T1 construct: The membrane homogenates are prepared at the time of use by homogenization of the tissues with a Polytron; from tissue; host or cells: mouse brain (minus the cerebellum), membrane homogenate
T1 sequence (O08914 1-579): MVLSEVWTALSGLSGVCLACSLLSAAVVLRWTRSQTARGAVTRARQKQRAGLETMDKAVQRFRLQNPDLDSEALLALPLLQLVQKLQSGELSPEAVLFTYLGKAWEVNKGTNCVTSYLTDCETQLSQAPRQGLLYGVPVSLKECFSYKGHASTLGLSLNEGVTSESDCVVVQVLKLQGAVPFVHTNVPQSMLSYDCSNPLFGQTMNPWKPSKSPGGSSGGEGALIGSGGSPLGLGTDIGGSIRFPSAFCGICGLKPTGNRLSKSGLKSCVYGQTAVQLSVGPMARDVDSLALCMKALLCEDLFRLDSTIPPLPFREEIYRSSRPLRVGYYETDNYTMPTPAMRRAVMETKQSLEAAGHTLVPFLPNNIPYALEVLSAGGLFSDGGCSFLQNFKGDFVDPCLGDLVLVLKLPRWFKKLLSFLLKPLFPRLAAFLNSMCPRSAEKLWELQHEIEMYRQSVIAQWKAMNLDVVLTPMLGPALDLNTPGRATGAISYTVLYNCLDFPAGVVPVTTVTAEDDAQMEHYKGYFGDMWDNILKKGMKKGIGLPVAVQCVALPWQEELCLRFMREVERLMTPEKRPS
Assay: radioenzymatic test of FAAH inhibition (hydrolysis of ((1-3H)ethanolamine)-anandamide, mouse brain membrane homogenates)
Assay type: biochemical
Conditions: mouse brain membrane homogenate; 10 μM anandamide; 15 minutes at 25° C.; read-out: IC50 (concentration which inhibits the control enzymatic activity of FAAH by 50%)
Procedure: The compounds of the invention have formed the subject of pharmacological trials which make it possible to determine their inhibitory effect on the enzyme FAAH (Fatty Acid Amido Hydrolase).
Thus, mouse brains (minus the cerebellum) are removed and stored at −80° C. The membrane homogenates are prepared at the time of use by homogenization of the tissues with a Polytron in a 10 mM Tris-HCl buffer (pH 8) comprising 150 mM NaCl and 1 mM EDTA. The enzymatic reaction is subsequently carried out in 70 μl of buffer comprising bovine serum albumin free from fatty acids (1 mg/ml). The test compounds, at various concentrations, the ((1-^3H)ethanolamine)-anandamide (specific activity of 15-20 Ci/mmol), diluted to 10 μM with non-radiolabelled anandamide, and the membrane preparation (400 μg of frozen tissue per assay) are successively added. After 15 minutes at 25° C., the enzymatic reaction is halted by addition of 140 μl of chloroform/methanol (2:1). The mixture is stirred for 10 minutes and is then centrifuged at 3500 g for 15 minutes. An aliquot (30 μl) of the aqueous phase comprising the (1-^3H)ethanolamine is counted by liquid scintillation.

Going from `CCCCCCCC/C=C/CCCCCCCCCCNC(=O)OCC(=O)NC` [Compound 47, 2-(Methylamino)-2-oxoethyl ((11E)-icosa-11-en-1-yl)carbamate] to `CCCCCCCNC(=O)OCC(=O)NC` [Compound 13, 2-(Methylamino)-2-oxoethyl (hept-1-yl)carbamate], the IC50 falls from 154 nM to 91 nM (1.7-fold).

Compared with `CCCCCCC(C)NC(=O)OCC(=O)NC` (stereo not drawn) [Compound 24, 2-(Methylamino)-2-oxoethyl (1-methylhept-1-yl)carbamate], `CNC(=O)COC(=O)NC1CCCCCCC1` [Compound 22, 2-(Methylamino)-2-oxoethyl (cyclooct-1-yl)carbamate] is 7.8-fold higher in IC50: 89 nM for the first, 696 nM for the second. The first is the more potent here.
